Test results: patent publication US20220008359A1, “COMBINATION ANTI-CANCER PRODUCTS AND METHODS” (priority 2020, published 2022)
Marks after values point to notes of the source that are not given here.

Test system: MCF7 cells
Experiment: Immuno-staining of protein expression and protein phosphorylation, MCF7 cells
Type: cell-based
Set-up: ATM level / P-AMPKa level / P-317 (ULK1) level / ATG5 level / HDAC8 level / BIM level: scale not given here
Description: ZR75-1 and MCF7 cells were treated with vehicle control, GZ17-6.02, Palbociclib or the drugs combined for 3 hours and for 6 hours. Cells were fixed in place and immuno-staining performed with in house validated antibodies to detect protein expression and protein phosphorylation.

CC(=O)c1c(C)c2cnc(Nc3ccc(N4CCNCC4)cn3)nc2n(C2CCCC2)c1=O [PALBO, Palbociclib]
AKT level (MCF7, 3 h): 100 | AMPKa level (MCF7, 3 h): 102 | ATG5 level (MCF7, 3 h): 107 | ATG13 level (MCF7, 3 h): 100 | ATM level (MCF7, 3 h): 100 | BAK level (MCF7, 3 h): 95 | BAX level (MCF7, 3 h): 103 | BCL-XL level (MCF7, 3 h): 99 | BIM level (MCF7, 3 h): 109 | Beclin1 level (MCF7, 3 h): 113# | CD95 level (MCF7, 3 h): 101 | CHOP level (MCF7, 3 h): 112 | Cyclin D level (MCF7, 3 h): 104 | Cyclin E level (MCF7, 3 h): 104 | ER level (MCF7, 3 h): 99 | ERBB1 level (MCF7, 3 h): 99 | ERBB2 level (MCF7, 3 h): 100 | ERBB3 level (MCF7, 3 h): 101 | ERK1/2 level (MCF7, 3 h): 100 | ERK2 level (MCF7, 3 h): 100 | ERRB4 level (MCF7, 3 h): 99 | FAS-L level (MCF7, 3 h): 108 | GRP78 level (MCF7, 3 h): 114# | HDAC1 level (MCF7, 3 h): 100 | HDAC2 level (MCF7, 3 h): 94 | HDAC3 level (MCF7, 3 h): 97 | HDAC4 level (MCF7, 3 h): 99 | HDAC5 level (MCF7, 3 h): 99 | HDAC6 level (MCF7, 3 h): 100 | HDAC7 level (MCF7, 3 h): 100 | HDAC8 level (MCF7, 3 h): 100 | HDAC9 level (MCF7, 3 h): 99 | HDAC10 level (MCF7, 3 h): 99 | HDAC11 level (MCF7, 3 h): 100 | IDO1 level (MCF7, 3 h): 97 | JAK2 level (MCF7, 3 h): 99 | JNK1/2 level (MCF7, 3 h): 100 | LATS1/2 level (MCF7, 3 h): 100 | MCL1 level (MCF7, 3 h): 95 | MHCA level (MCF7, 3 h): 102 | NEDD4 level (MCF7, 3 h): 96 | NFkB level (MCF7, 3 h): 101 | ODC level (MCF7, 3 h): 103 | P-89 (TAZ) level (MCF7, 3 h): 105 | P-109 (YAP) level (MCF7, 3 h): 106 | P-127 (YAP) level (MCF7, 3 h): 102 | P-317 (ULK1) level (MCF7, 3 h): 109 | P-397 (YAP) level (MCF7, 3 h): 96 | P-757 (ULK1) level (MCF7, 3 h): 98 | P-909 (LATS1/2) level (MCF7, 3 h): 99 | P-1079 (LATS1/2) level (MCF7, 3 h): 109 | P-AMPKa level (MCF7, 3 h): 112 | P-ATG13 level (MCF7, 3 h): 116# | P-ATM level (MCF7, 3 h): 105 | P-ERBB1 level (MCF7, 3 h): 100 | P-ERBB2 level (MCF7, 3 h): 99 | P-ERBB3 level (MCF7, 3 h): 111 | P-ERBB4 level (MCF7, 3 h): 102 | P-ERK level (MCF7, 3 h): 101 | P-JAK2 level (MCF7, 3 h): 101 | P-JNK level (MCF7, 3 h): 89 | P-KIT level (MCF7, 3 h): 100 | P-MET level (MCF7, 3 h): 100 | P-NFkB level (MCF7, 3 h): 100 | P-PDGFRb level (MCF7, 3 h): 103 | P-PERK level (MCF7, 3 h): 109 | P-S2448 (mTOR) level (MCF7, 3 h): 98 | P-S2481 (mTOR) level (MCF7, 3 h): 98 | P-T308 (AKT) level (MCF7, 3 h): 96 | P-Y694 (STAT5) level (MCF7, 3 h): 98 | P-Y705 (STAT3) level (MCF7, 3 h): 98 | P-eIF2a level (MCF7, 3 h): 107 | P-p38 level (MCF7, 3 h): 97 | P-p70 T389 level (MCF7, 3 h): 105 | PD-L1 level (MCF7, 3 h): 100 | PD-L2 level (MCF7, 3 h): 100 | PDGFRb level (MCF7, 3 h): 100 | PERK level (MCF7, 3 h): 101 | PP1 level (MCF7, 3 h): 98 | PTEN level (MCF7, 3 h): 103 | STAT3 level (MCF7, 3 h): 100 | STAT5 level (MCF7, 3 h): 100 | TAZ level (MCF7, 3 h): 101 | ULK1 level (MCF7, 3 h): 100 | Y416 (c-SRC) level (MCF7, 3 h): 100 | Y527 (c-SRC) level (MCF7, 3 h): 98 | YAP level (MCF7, 3 h): 99 | c-KIT level (MCF7, 3 h): 100 | c-MET level (MCF7, 3 h): 91 | c-SRC level (MCF7, 3 h): 100 | eIF2a level (MCF7, 3 h): 99 | mTOR level (MCF7, 3 h): 100 | p38 level (MCF7, 3 h): 101 | p70 S6K level (MCF7, 3 h): 99 | AKT level (MCF7, 6 h): 100 | AMPKa level (MCF7, 6 h): 100 | ATG5 level (MCF7, 6 h): 114# | ATG13 level (MCF7, 6 h): 101 | ATM level (MCF7, 6 h): 99 | BAK level (MCF7, 6 h): 109 | BAX level (MCF7, 6 h): 95 | BCL-XL level (MCF7, 6 h): 94 | BIM level (MCF7, 6 h): 113# | Beclin1 level (MCF7, 6 h): 117# | CD95 level (MCF7, 6 h): 100 | CHOP level (MCF7, 6 h): 116# | Cyclin D level (MCF7, 6 h): 108 | Cyclin E level (MCF7, 6 h): 104 | ER level (MCF7, 6 h): 91 | ERBB1 level (MCF7, 6 h): 101 | ERBB2 level (MCF7, 6 h): 100 | ERBB3 level (MCF7, 6 h): 100 | ERK1/2 level (MCF7, 6 h): 100 | ERK2 level (MCF7, 6 h): 100 | ERRB4 level (MCF7, 6 h): 100 | FAS-L level (MCF7, 6 h): 111 | GRP78 level (MCF7, 6 h): 115# | HDAC1 level (MCF7, 6 h): 99 | HDAC2 level (MCF7, 6 h): 95 | HDAC3 level (MCF7, 6 h): 101 | HDAC4 level (MCF7, 6 h): 102 | HDAC5 level (MCF7, 6 h): 98 | HDAC6 level (MCF7, 6 h): 101 | HDAC7 level (MCF7, 6 h): 101 | HDAC8 level (MCF7, 6 h): 101 | HDAC9 level (MCF7, 6 h): 100 | HDAC10 level (MCF7, 6 h): 99 | HDAC11 level (MCF7, 6 h): 99 | IDO1 level (MCF7, 6 h): 96 | JAK2 level (MCF7, 6 h): 100 | JNK1/2 level (MCF7, 6 h): 100 | LATS1/2 level (MCF7, 6 h): 100 | MCL1 level (MCF7, 6 h): 91 | MHCA level (MCF7, 6 h): 103 | NEDD4 level (MCF7, 6 h): 97 | NFkB level (MCF7, 6 h): 100 | ODC level (MCF7, 6 h): 101 | P-89 (TAZ) level (MCF7, 6 h): 103 | P-109 (YAP) level (MCF7, 6 h): 104 | P-127 (YAP) level (MCF7, 6 h): 104 | P-317 (ULK1) level (MCF7, 6 h): 113# | P-397 (YAP) level (MCF7, 6 h): 99 | P-757 (ULK1) level (MCF7, 6 h): 98 | P-909 (LATS1/2) level (MCF7, 6 h): 99 | P-1079 (LATS1/2) level (MCF7, 6 h): 112 | P-AMPKa level (MCF7, 6 h): 117# | P-ATG13 level (MCF7, 6 h): 118# | P-ATM level (MCF7, 6 h): 109 | P-ERBB1 level (MCF7, 6 h): 100 | P-ERBB2 level (MCF7, 6 h): 100 | P-ERBB3 level (MCF7, 6 h): 114# | P-ERBB4 level (MCF7, 6 h): 106 | P-ERK level (MCF7, 6 h): 99 | P-JAK2 level (MCF7, 6 h): 100 | P-JNK level (MCF7, 6 h): 90 | P-KIT level (MCF7, 6 h): 100 | P-MET level (MCF7, 6 h): 96 | P-NFkB level (MCF7, 6 h): 99 | P-PDGFRb level (MCF7, 6 h): 105 | P-PERK level (MCF7, 6 h): 103 | P-S2448 (mTOR) level (MCF7, 6 h): 98 | P-S2481 (mTOR) level (MCF7, 6 h): 96 | P-T308 (AKT) level (MCF7, 6 h): 107 | P-Y694 (STAT5) level (MCF7, 6 h): 98 | P-Y705 (STAT3) level (MCF7, 6 h): 98 | P-eIF2a level (MCF7, 6 h): 110 | P-p38 level (MCF7, 6 h): 100 | P-p70 T389 level (MCF7, 6 h): 110 | PD-L1 level (MCF7, 6 h): 98 | PD-L2 level (MCF7, 6 h): 98 | PDGFRb level (MCF7, 6 h): 99 | PERK level (MCF7, 6 h): 101 | PP1 level (MCF7, 6 h): 99 | PTEN level (MCF7, 6 h): 103 | STAT3 level (MCF7, 6 h): 100 | STAT5 level (MCF7, 6 h): 100 | TAZ level (MCF7, 6 h): 100 | ULK1 level (MCF7, 6 h): 100 | Y416 (c-SRC) level (MCF7, 6 h): 101 | Y527 (c-SRC) level (MCF7, 6 h): 103 | YAP level (MCF7, 6 h): 99 | c-KIT level (MCF7, 6 h): 102 | c-MET level (MCF7, 6 h): 99 | c-SRC level (MCF7, 6 h): 101 | eIF2a level (MCF7, 6 h): 100 | mTOR level (MCF7, 6 h): 100 | p38 level (MCF7, 6 h): 103 | p70 S6K level (MCF7, 6 h): 100 | P-ERBB3 level (MCF7, 6 h, listed as Palbo): 114
